Results taken from US5939447A, “Substituted benzopyrans” (SmithKline Beecham Corporation, priority 1998, dated 1999).

Legend:
[1] = incubation of pranlukast with liver microsomes from rats or mice; type: in vitro ADME; details: rat or mouse liver microsomes; for metabolite formation from pranlukast: high concentrations of pranlukast (50 uM)
[2] = human radiolabel study of pranlukast (recovery in feces, metabolites in feces and plasma); type: in vivo; details: for plasma concentrations of metabolite in humans: human plasma, limited data from the single radiolabelled study
[3] = assays predictive of utility in treating asthma
[4] = incubation of pranlukast with human liver S9 from donor H51; type: in vitro ADME
Method: Samples from the human S9 incubations were received as a 1:1 mixture of incubation media and acetonitrile. In order to reduce the relative organic content to about 25%, the samples were diluted with an equal volume of water prior to HPLC/MS and HPLC/MS/MS analysis. Samples from the microsomal incubations were also received as a 1:1 mixture of incubation media and acetonitrile. The relative organic content was however reduced to about 25% by evaporation following the centrifugation step.
Retention times observed in the ion chromatograms for m/z 498 and 482 (pranlukast) correlate well with those in the radiochromatogram. […] Therefore, in the CID spectra of the two monohydroxylated metabolites and the parent compound, the precursor and fragment ions are all shifted by +2 amu due to the predominance of the [^14 C] label. The observed fragmentation patterns are identical to the standards and confirmed the presence of pranlukast, as well as two monohydroxylated metabolites.

[5] = incubation of pranlukast with liver microsomes from dogs; type: in vitro ADME; details: dog liver microsomes
[6] = incubation with human liver microsomes; type: in vitro ADME; details: human liver microsomes and NADPH
Method: From an evaluation of a battery of human liver microsomes, it was evident that some human livers have enhanced activity towards benzylic hydroxylation. It appears that benzylic and aryl hydroxylation are performed by different P450 enzymes but which enzyme(s) is currently not known.
Preparation of Formula (I) Using Human Hepatic Microsomes:
The incubations were performed with a final volume of 100 mL in a shaking water bath at a temperature of approximately 37° C. Each incubation contained approximately 400 ug/mL of microsomal protein (H51), 0.5 mL 2 mM pranlukast in a 16% w/v encapsin solution containing 1.5% w/v sodium bicarbonate. The incubation volume was adjusted to 75 mL with 50 mM potassium phosphate buffer (pH 7.4). Following a 5 minute pre-incubation at approximately 37° C., the reaction was initiated by the addition of 25 mL of pre-warmed cofactor solution (approximately 1.7 mg NADP, 7.8 mg glucose 6-phosphate and 6 units of glucose 6-phosphate dehydrogenase per mL of 2% (w/v) sodium hydrogen carbonate). […] The putative benzyl hydroxy metabolite was subsequently isolated and analysed as described below. […]
The incubation was performed with a final volume of […] in a shaking water bath at a temperature of approximately 37° C. […] The putative dihydroxymetabolite formed was subsequently analysed and isolated as described below.

| SMILES | metabolite formation from pranlukast [1] | sulfation in humans ([2]; human) | plasma concentrations of metabolite in humans [2] | plasma concentrations of metabolite in humans ([2]; listed as benzylhydroxy) | activity in assays predictive of utility in treating asthma and other diseases which can be treated by pranlukast [3] | dependence of metabolite formation on NADPH [4] | metabolite formation from pranlukast [4] | metabolite formation from pranlukast [5] | metabolite generated in vitro from the 4-hydroxyphenyl pranlukast analog [6] | presence of metabolite in human fecal samples ([2]; human feces) | predominant metabolic pathway [1] | absorption ([2]; human) | route of metabolism in humans ([2]; human, benzylic hydroxylation) | dose excreted ([2]; human, feces, after pranlukast, read-out: administered radiolabel recovered in feces as the named species) [%] | administered radiolabel recovered in feces ([2]; human, total radiolabel after pranlukast) [%] |
| --- | --- | --- | --- | --- | --- | --- | --- | --- | --- | --- | --- | --- | --- | --- | --- |
| O=C(Nc1cccc2c(=O)cc(-c3nnn[nH]3)oc12)c1ccc(OCCCC(O)c2ccccc2)cc1 (centres unmarked) [Formula (I), 4-oxo-8-[4-(4-hydroxy-4-phenylbutoxy)benzoylamino]-2-tetrazol-5-yl-4H-1-benzopyran] | detectable | no evidence for sulfation | measurable plasma concentrations in humans | measurable in human plasma | active | dependent on the presence of NADPH | major metabolites | only very small amounts | – | – | – | – | – | – | – |
| O=C(Nc1cccc2c(=O)cc(-c3nnn[nH]3)oc12)c1ccc(OCCCC(O)c2ccc(O)cc2)cc1 (centres unmarked) [Formula (II), 4-oxo-8-[4-(4-hydroxy-4-(4-hydroxyphenyl)butoxy)benzoylarnino]-2-tetrazol-5-yl-4H-1-benzopyran] | detectable | appears to be sulfated in humans | measurable in human plasma | – | active | – | – | form the arylhydroxy species | generated in vitro | found in human fecal samples | – | – | – | – | – |
| O=C(Nc1cccc2c(=O)cc(-c3nnn[nH]3)oc12)c1ccc(OCCCCc2ccccc2)cc1 [pranlukast, reference compound] | – | – | – | – | – | – | – | – | – | – | hydrolysis of the amide bond in the center of the molecule is the predominant metabolic pathway | poor absorption | major route of metabolism in humans | ~84 | 98.4 |
